± gives the expanded uncertainty stated by the source.
Experiments:
[1] = for mass density: Liquid, Vibrating tube method; for surface tension liquid-gas: Pendant drop shape
[2] = xn = mol fraction of the nth substance listed; details: x2 = 0; for surface tension liquid-gas: Pendant drop shape; for mass density: Liquid, Vibrating tube method

NCCO [2-aminoethan-1-ol]
[1]
Details	mass density [kg/m3]
298.15 K, 101 kPa	1011.9 ± 0.7
303.15 K, 101 kPa	1008 ± 0.7
308.15 K, 101 kPa	1004 ± 0.7
313.15 K, 101 kPa	1000 ± 0.7
318.15 K, 101 kPa	996 ± 0.7
323.15 K, 101 kPa	992 ± 0.7
328.15 K, 101 kPa	988 ± 0.7
333.15 K, 101 kPa	983.9 ± 0.7
338.15 K, 101 kPa	979.8 ± 0.7
343.15 K, 101 kPa	975.8 ± 0.7
348.15 K, 101 kPa	971.6 ± 0.7
353.15 K, 101 kPa	967.5 ± 0.7
358.15 K, 101 kPa	963.4 ± 0.7
363.15 K, 101 kPa	959.2 ± 0.7
373.1 K, 700 kPa	950.9 ± 0.7
383.15 K, 700 kPa	942.3 ± 0.7
393.15 K, 700 kPa	933.5 ± 0.7
403.15 K, 700 kPa	924.7 ± 0.7
413.15 K, 700 kPa	915.7 ± 0.7
423.15 K, 700 kPa	906.4 ± 0.7

[1]
Details	surface tension liquid-gas [mN/m]
303.15 K	48.13 ± 0.63
313.15 K	46.66 ± 0.63
323.15 K	45.58 ± 0.62
333.15 K	44.63 ± 0.62

O [water] + NCCO
[2]
Details	surface tension liquid-gas [mN/m]
303.15 K	71.3 ± 0.76
313.15 K	69.55 ± 0.75
323.15 K	67.98 ± 0.74
333.15 K	66.16 ± 0.73

[2]
Details	mass density [kg/m3]
323.15 K, 101 kPa	988 ± 0.7
328.15 K, 101 kPa	985.7 ± 0.7
333.15 K, 101 kPa	983.2 ± 0.7
338.15 K, 101 kPa	980.5 ± 0.7
343.15 K, 101 kPa	977.7 ± 0.7
348.15 K, 101 kPa	974.8 ± 0.7
353.15 K, 101 kPa	971.8 ± 0.7
358.15 K, 101 kPa	968.6 ± 0.7
363.15 K, 101 kPa	965.3 ± 0.7
373.1 K, 700 kPa	958.6 ± 0.7
383.15 K, 700 kPa	951.2 ± 0.7
393.15 K, 700 kPa	943.4 ± 0.7
403.15 K, 700 kPa	935.1 ± 0.7
413.15 K, 700 kPa	926.3 ± 0.7
423.15 K, 700 kPa	917.1 ± 0.7

Reference: the NIST ThermoML archive (doi:10.1021/je2010038)
